Values of other authors as cited in patent publication US20250195566A1, “ORAL PHARMACEUTICAL COMPOSITION FOR PREVENTING AND/OR TREATING DISEASES OF THE SOFT AND HARD TISSUES SURROUNDING THE TOOTH IN THE ORAL CAVITY” (priority 2021, published 2025).

Assays:
[1] = tested on: supragingival bacterial plaque and gingival inflammation; settings: clinical results
[2] = tested on: 52 bacteria isolated from subgingival plaque; settings: bacteria isolated from patients with periodontitis

Compound: N=C(NCCCCCCNC(=N)NC(=N)Nc1ccc(Cl)cc1)NC(=N)Nc1ccc(Cl)cc1 [chlorhexidine, Chlorhexidine]
- reduction of gingival inflammation [1]: 45%
- reduction of supragingival bacterial plaque [1]: 55%
- concentration at which all bacteria were inhibited [2]: 250 mg/mL
